Reference: patent publication US20100267637A1, “TREATMENT OF MELANOMA WITH ALPHA THYMOSIN PEPTIDES IN COMBINATION WITH A KINASE INHIBITOR” (SciClone Pharmaceuticals, Inc., priority 2007, published 2010)
“Also recorded” adds a separate entry of the source. Where no end group is shown, it is not given here.

Assay: Treatment toxicity: body weight and drug-induced animal deaths in B16 melanoma-bearing mice
Type: in vivo, C57BL/6 mice
Details: for body weight effect in words (loss / difference vs vehicle group): throughout the course of the study
Experimental: The toxic effects of the dosing regimens were also monitored. […] Meanwhile 9H10 was given in two groups via i.p. on Day 3, 6 and 9. […] Tumor volume and body weight were measured every three days, and tumor weights were measured on Day 16 at the end of the study.
On Day 3, the animals were randomly assigned into nine different weight-matched and tumor-size-matched groups. Dosing was started on Day 3 using the regimen according to Table 2.
From Day 1 to Day 15, mortality and moribundity were checked twice daily, the body weights were recorded once every 3 days, and tumors were measured using a caliper once every 3 days. At the end of the study (Day 16), the animals were euthanized by CO2 asphyxiation, and the tumors were excised and weighed.
Toxicity of all treatment regimens was evaluated with the body weights of the study animals along with the drug-induced animal deaths. The inhibition of body weight was calculated using Excel according to the equation below:
PIBW(%)=100×(BW vehicle−BW drug treated)/BW vehicle
Inter-group comparison was performed in terms of tumor volume, tumor weight and body weight, using a student's t test. P values of less than 0.05 were considered to be statistically significant.

CN(C)/N=N/c1[nH]cnc1C(N)=O [DTIC, Dacarbazine]
Body Weight (g) (Mean ± SD) (Day 0 (tumor implantation, before dosing)): 20.86 ± 1.294 g | Body weights on Day 0 (Day 0, animal F1): 21.50 g | Body weights on Day 0 (Day 0, animal F2): 19.90 g | Body weights on Day 0 (Day 0, animal F3): 19.70 g | Body weights on Day 0 (Day 0, animal F4): 19.30 g | Body weights on Day 0 (Day 0, animal F5): 22.10 g | Body weights on Day 0 (Day 0, animal M1): 22.40 g | Body weights on Day 0 (Day 0, animal M2): 21.80 g | Body weights on Day 0 (Day 0, animal M3): 21.00 g | Body weights on Day 0 (Day 0, animal M4): 18.90 g | Body weights on Day 0 (Day 0, animal M5): 22.00 g | Percent inhibition of body weight vs vehicle (PIBW) (Day 0): −0.1440% | Body Weight (g) (Mean ± SD) (Day 3 (start of dosing)): 21.02 ± 0.993 g | Body weights on Day 3 (Day 3, animal F1): 21.60 g | Body weights on Day 3 (Day 3, animal F2): 19.60 g | Body weights on Day 3 (Day 3, animal F3): 20.50 g | Body weights on Day 3 (Day 3, animal F4): 20.30 g | Body weights on Day 3 (Day 3, animal F5): 21.30 g | Body weights on Day 3 (Day 3, animal M1): 22.20 g | Body weights on Day 3 (Day 3, animal M2): 22.00 g | Body weights on Day 3 (Day 3, animal M3): 21.20 g | Body weights on Day 3 (Day 3, animal M4): 19.50 g | Body weights on Day 3 (Day 3, animal M5): 22.00 g | Percent inhibition of body weight vs vehicle (PIBW) (Day 3): −0.6705% | Body Weight (g) (Mean ± SD) (Day 6): 20.41 ± 0.960 g | Body weights on Day 6 (Day 6, animal F1): 20.40 g | Body weights on Day 6 (Day 6, animal F2): 18.40 g | Body weights on Day 6 (Day 6, animal F3): 19.70 g | Body weights on Day 6 (Day 6, animal F4): 20.10 g | Body weights on Day 6 (Day 6, animal F5): 20.50 g | Body weights on Day 6 (Day 6, animal M1): 20.90 g | Body weights on Day 6 (Day 6, animal M2): 21.80 g | Body weights on Day 6 (Day 6, animal M3): 20.20 g | Body weights on Day 6 (Day 6, animal M4): 20.50 g | Body weights on Day 6 (Day 6, animal M5): 21.60 g | Percent inhibition of body weight vs vehicle (PIBW) (Day 6): −0.0490% | Body Weight (g) (Mean ± SD) (Day 9): 20.99 ± 1.049 g | Body weights on Day 9 (Day 9, animal F1): 21.70 g | Body weights on Day 9 (Day 9, animal F2): 19.50 g | Body weights on Day 9 (Day 9, animal F3): 21.10 g | Body weights on Day 9 (Day 9, animal F4): 19.50 g | Body weights on Day 9 (Day 9, animal F5): 21.70 g | Body weights on Day 9 (Day 9, animal M1): 21.30 g | Body weights on Day 9 (Day 9, animal M2): 22.10 g | Body weights on Day 9 (Day 9, animal M3): 20.60 g | Body weights on Day 9 (Day 9, animal M4): 20.00 g | Body weights on Day 9 (Day 9, animal M5): 22.40 g | Percent inhibition of body weight vs vehicle (PIBW) (Day 9): −2.8417% | Body Weight (g) (Mean ± SD) (Day 12): 22.09 ± 1.079 g | Body weights on Day 12 (Day 12, animal F1): 22.50 g | Body weights on Day 12 (Day 12, animal F2): 20.10 g | Body weights on Day 12 (Day 12, animal F3): 21.40 g | Body weights on Day 12 (Day 12, animal F4): 21.70 g | Body weights on Day 12 (Day 12, animal F5): 22.20 g | Body weights on Day 12 (Day 12, animal M1): 22.80 g | Body weights on Day 12 (Day 12, animal M2): 23.40 g | Body weights on Day 12 (Day 12, animal M3): 22.20 g | Body weights on Day 12 (Day 12, animal M4): 21.00 g | Body weights on Day 12 (Day 12, animal M5): 23.60 g | Percent inhibition of body weight vs vehicle (PIBW) (Day 12): −0.9137% | Body Weight (g) (Mean ± SD) (Day 15): 22.22 ± 1.963 g | Body weights on Day 15 (Day 15, animal F1): 21.30 g | Body weights on Day 15 (Day 15, animal F2): 18.70 g | Body weights on Day 15 (Day 15, animal F3): 20.20 g | Body weights on Day 15 (Day 15, animal F4): 22.20 g | Body weights on Day 15 (Day 15, animal F5): 22.20 g | Body weights on Day 15 (Day 15, animal M1): 24.50 g | Body weights on Day 15 (Day 15, animal M2): 24.20 g | Body weights on Day 15 (Day 15, animal M3): 22.70 g | Body weights on Day 15 (Day 15, animal M4): 21.30 g | Body weights on Day 15 (Day 15, animal M5): 24.90 g | Percent inhibition of body weight vs vehicle (PIBW) (Day 15): −0.3613% | body weight effect in words (loss / difference vs vehicle group): no statistical differences in body weights

Thymosin Alpha-1 (Ac-SDAAVDTSSEITTKDLKEKKEVVEEAEN; ends and bridges not checked; UniProt P06454 2-29, looked up) [TA-1, 28 amino acid peptide, immunomodulator; test article (SciClone), 6 mg/kg s.c. daily]
Body weights on Day 0 (Day 0, animal F1): 21.40 g | Body weights on Day 0 (Day 0, animal F2): 19.20 g | Body weights on Day 0 (Day 0, animal F3): 21.10 g | Body weights on Day 0 (Day 0, animal F4): 20.20 g | Body weights on Day 0 (Day 0, animal F5): 19.00 g | Body weights on Day 0 (Day 0, animal M1): 21.60 g | Body weights on Day 0 (Day 0, animal M2): 22.50 g | Body weights on Day 0 (Day 0, animal M3): 22.10 g | Body weights on Day 0 (Day 0, animal M4): 21.70 g | Body weights on Day 0 (Day 0, animal M5): 19.80 g | Percent inhibition of body weight vs vehicle (PIBW) (Day 0): −0.1440% | Body Weight (g) (Mean ± SD) (Day 3 (start of dosing)): 20.44 ± 1.460 g | Body weights on Day 3 (Day 3, animal F3): 20.40 g | Body weights on Day 3 (Day 3, animal F4): 20.30 g | Body weights on Day 3 (Day 3, animal F5): 17.20 g | Body weights on Day 3 (Day 3, animal M1): 21.40 g | Body weights on Day 3 (Day 3, animal M2): 22.20 g | Body weights on Day 3 (Day 3, animal M3): 21.60 g | Body weights on Day 3 (Day 3, animal M4): 21.50 g | Percent inhibition of body weight vs vehicle (PIBW) (Day 3): 2.1073% | Body Weight (g) (Mean ± SD) (Day 6): 21.38 ± 1.220 g | Body weights on Day 6 (Day 6, animal F1): 22.10 g | Body weights on Day 6 (Day 6, animal F2): 20.10 g | Body weights on Day 6 (Day 6, animal F3): 21.80 g | Body weights on Day 6 (Day 6, animal F4): 20.80 g | Body weights on Day 6 (Day 6, animal F5): 20.20 g | Body weights on Day 6 (Day 6, animal M1): 22.00 g | Body weights on Day 6 (Day 6, animal M2): 22.90 g | Body weights on Day 6 (Day 6, animal M3): 22.30 g | Body weights on Day 6 (Day 6, animal M4): 22.40 g | Body weights on Day 6 (Day 6, animal M5): 19.20 g | Percent inhibition of body weight vs vehicle (PIBW) (Day 6): −4.8039% | Body weights on Day 9 (Day 9, animal F1): 21.50 g | Body weights on Day 9 (Day 9, animal F2): 19.70 g | Body weights on Day 9 (Day 9, animal F3): 20.30 g | Body weights on Day 9 (Day 9, animal F4): 20.40 g | Body weights on Day 9 (Day 9, animal F5): 19.20 g | Body weights on Day 9 (Day 9, animal M1): 21.50 g | Body weights on Day 9 (Day 9, animal M2): 22.40 g | Body weights on Day 9 (Day 9, animal M3): 22.00 g | Body weights on Day 9 (Day 9, animal M4): 21.90 g | Body weights on Day 9 (Day 9, animal M5): 19.90 g | Percent inhibition of body weight vs vehicle (PIBW) (Day 9): −2.3028% | Body Weight (g) (Mean ± SD) (Day 12): 21.24 ± 1.623 g | Body weights on Day 12 (Day 12, animal F1): 21.90 g | Body weights on Day 12 (Day 12, animal F2): 19.10 g | Body weights on Day 12 (Day 12, animal F3): 20.70 g | Body weights on Day 12 (Day 12, animal F5): 18.90 g | Body weights on Day 12 (Day 12, animal M1): 22.60 g | Body weights on Day 12 (Day 12, animal M2): 23.50 g | Body weights on Day 12 (Day 12, animal M3): 22.70 g | Body weights on Day 12 (Day 12, animal M4): 22.40 g | Body weights on Day 12 (Day 12, animal M5): 19.70 g | Percent inhibition of body weight vs vehicle (PIBW) (Day 12): 2.9694% | Body Weight (g) (Mean ± SD) (Day 15): 22.74 ± 1.459 g | Body weights on Day 15 (Day 15, animal F1): 24.30 g | Body weights on Day 15 (Day 15, animal F2): 20.70 g | Body weights on Day 15 (Day 15, animal F3): 22.30 g | Body weights on Day 15 (Day 15, animal F4): 21.80 g | Body weights on Day 15 (Day 15, animal F5): 21.30 g | Body weights on Day 15 (Day 15, animal M1): 22.60 g | Body weights on Day 15 (Day 15, animal M2): 24.50 g | Body weights on Day 15 (Day 15, animal M3): 24.70 g | Body weights on Day 15 (Day 15, animal M4): 23.70 g | Body weights on Day 15 (Day 15, animal M5): 21.50 g | Percent inhibition of body weight vs vehicle (PIBW) (Day 15): −2.7100% | body weight effect in words (loss / difference vs vehicle group): did no cause any statistically significant loss of body weights; also recorded: did not cause any loss of body weights | body weight effect in words (loss / difference vs vehicle group) (listed as TA-1 alone): no statistical differences in body weights
